Measured values from patent publication US10517889B2, “Modulators of SMAD7 expression” (Ionis Pharmaceuticals, Inc., priority 2017, dated 2019).
Strand notation (5' to 3'): a small letter for the sugar, then the base; units joined by * are phosphorothioate-linked, units joined directly phosphodiester-linked; [ ] holds rarer units or linkages, { } end groups; capitals alone tell only the bases. k = constrained ethyl (cEt); [5mC] = 5-methylcytosine; d = 2'-deoxy (DNA)

tested on: human SMAD7 mRNA; experiment: Antisense inhibition of human SMAD7 mRNA expression in Hep3B cells by 3-10-3 cEt gapmers, 10,000 nM, electroporation (Example 2); assay type: cell-based; settings: Hep3B cells, 10,000 nM antisense oligonucleotide, electroporation, approximately 24 hours, RT-PCR primer probe set RTS5062, relative to untreated control cells
Outline: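 Percent inhibition of SMAD7 mRNA, relative to untreated cells, after ~24 h exposure of electroporated Hep3B cells to 10,000 nM cEt gapmer; levels by qRT-PCR, corrected for total RNA.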

Row | Substance | % Inhibition [%]
1 | 799914 (antisense k[5mC]*kT*kG*dA*dG*dA*dG*dA*dG*dG*d[5mC]*d[5mC]*dT*k[5mC]*kA*kG) [compound 799914] | 24
2 | 799880 (kT*k[5mC]*k[5mC]*dG*dA*dT*dG*dG*dA*dA*dA*dA*dG*k[5mC]*kT*k[5mC]; antisense) [compound 799880] | 39
3 | 798912 (kT*k[5mC]*k[5mC]*dG*d[5mC]*dA*d[5mC]*dG*d[5mC]*dG*dG*d[5mC]*dT*kA*k[5mC]*k[5mC]; antisense) [compound 798912] | 22

same assay, conditions: Hep3B cells, electroporation with 10,000 nM antisense oligonucleotide, approximately 24 hours, RTS5062, percent inhibition of SMAD7 mRNA relative to untreated control cells

Row | Substance | % Inhibition [%]
4 | 799316 (antisense kA*kA*kA*d[5mC]*dA*d[5mC]*d[5mC]*dA*dA*dG*dA*dT*d[5mC]*k[5mC]*kA*kT) [compound 799316] | 0
5 | 799704 (antisense kA*k[5mC]*k[5mC]*dA*dA*dT*dG*dG*d[5mC]*dA*dT*dT*dG*kA*kA*kT) [compound 799704] | 12
6 | 799809 (antisense k[5mC]*kA*kA*dT*dA*d[5mC]*dT*dG*dA*dA*dA*dT*dG*kA*kG*k[5mC]) [compound 799809] | 43
7 | 799310 (antisense kT*kA*kA*dG*d[5mC]*dA*d[5mC]*dG*d[5mC]*dT*d[5mC]*dT*dA*kA*kA*k[5mC]) [compound 799310] | 18
8 | 799706 (antisense k[5mC]*kT*kT*dG*dT*dG*dG*dT*dA*dA*dA*dA*dT*kA*k[5mC]*kA) [compound 799706] | 47
9 | 799768 (k[5mC]*kA*k[5mC]*d[5mC]*dA*dA*d[5mC]*d[5mC]*dT*d[5mC]*dT*dG*dT*kG*kG*kG; antisense) [compound 799768] | 0

same assay, conditions: Hep3B cells, electroporation with 10,000 nM antisense oligonucleotide, approximately 24 hours, SMAD7 mRNA by RT-PCR (RTS5062), relative to untreated control cells

Row | Substance | % Inhibition [%]
10 | 830212 (kG*k[5mC]*kA*dG*dG*dG*dT*dG*dG*dA*dG*dA*d[5mC]*k[5mC]*kG*kG; antisense) [compound 830212] | 43
11 | 799336 (kA*k[5mC]*kT*dG*d[5mC]*dA*dG*dG*dA*dG*d[5mC]*dA*dG*kT*kG*k[5mC]; antisense) [compound 799336] | 25
12 | 798681 (antisense kG*kA*kA*d[5mC]*dA*dT*dG*dA*d[5mC]*d[5mC]*dT*d[5mC]*d[5mC]*kG*k[5mC]*kA) [compound 798681] | 29
13 | 830045 (k[5mC]*k[5mC]*kG*dA*dT*dT*dG*dG*d[5mC]*dA*dG*dG*dT*kT*kA*kA; antisense) [compound 830045] | 47
14 | 799357 (k[5mC]*kA*k[5mC]*dA*dA*d[5mC]*dA*dG*dA*dA*dA*dA*dA*kT*kT*k[5mC]; antisense) [compound 799357] | 41
15 | 830120 (kG*k[5mC]*k[5mC]*dG*dA*d[5mC]*d[5mC]*dT*dT*d[5mC]*d[5mC]*dT*d[5mC]*k[5mC]*k[5mC]*kA; antisense) [compound 830120] | 27
16 | 799940 (antisense k[5mC]*kT*kT*dT*dG*dA*dG*dG*dA*dG*d[5mC]*dA*dG*kG*kG*kT) [compound 799940] | 50
17 | 830101 (kG*k[5mC]*k[5mC]*d[5mC]*dG*d[5mC]*dT*d[5mC]*dT*d[5mC]*dA*dG*d[5mC]*k[5mC]*kA*kG; antisense) [compound 830101] | 46
18 | 830192 (antisense kA*k[5mC]*kT*dA*dA*dT*d[5mC]*dA*dG*dA*dT*dG*d[5mC]*k[5mC]*kT*kG) [compound 830192] | 41
19 | 798751 (k[5mC]*k[5mC]*kG*dG*dG*d[5mC]*dA*dG*d[5mC]*dA*dG*dG*dA*kG*kG*k[5mC]; antisense) [compound 798751] | 0
20 | 798900 (k[5mC]*k[5mC]*kA*dG*d[5mC]*dA*d[5mC]*dG*dG*dG*d[5mC]*dA*dG*k[5mC]*kT*kG; antisense) [compound 798900] | 0
21 | 799351 (kT*kT*kT*dA*dG*d[5mC]*dT*dG*dT*d[5mC]*dA*dG*dA*kT*kA*kA; antisense) [compound 799351] | 31
22 | 799961 (antisense k[5mC]*k[5mC]*kT*dA*dA*dA*dA*d[5mC]*dA*dG*dG*dG*dT*kT*k[5mC]*k[5mC]) [compound 799961] | 20
23 | 799881 (kA*kA*kT*dA*dA*dA*dT*dT*d[5mC]*d[5mC]*dA*dA*dT*kG*k[5mC]*kA; antisense) [compound 799881] | 0
24 | 799505 (antisense k[5mC]*k[5mC]*k[5mC]*dG*dG*d[5mC]*dT*dA*dA*dG*dG*dA*dA*kA*kG*kG) [compound 799505] | 31
25 | 799335 (kT*kG*k[5mC]*dA*dG*dG*dA*dG*d[5mC]*dA*dG*dT*dG*k[5mC]*k[5mC]*k[5mC]; antisense) [compound 799335] | 31
26 | 830202 (antisense kT*k[5mC]*kT*dG*dA*dA*dG*dG*d[5mC]*dT*dA*d[5mC]*dA*k[5mC]*k[5mC]*kA) [compound 830202] | 50

same assay, conditions: Hep3B cells, electroporation with 10,000 nM antisense oligonucleotide, approximately 24 hours, primer probe set RTS5062, relative to untreated control cells

Row | Substance | % Inhibition [%] | % inhibition of SMAD7 mRNA expression [%]
27 | 799121 (antisense k[5mC]*k[5mC]*kT*dA*dA*dT*dA*dG*d[5mC]*dA*dG*dA*dG*k[5mC]*kT*kT) [compound 799121] | 25 | –
28 | 798749 (antisense kG*kG*kA*d[5mC]*dT*d[5mC]*d[5mC]*dA*d[5mC]*dG*dG*d[5mC]*d[5mC]*kT*kG*kG) [compound 798749] | – | 63
29 | 790695 (kT*kG*kA*dA*dA*dT*dG*dG*dT*dG*d[5mC]*dT*d[5mC]*kT*kG*k[5mC]; antisense) [compound 790695] | – | 62
30 | 799339 (kG*kA*kT*dA*d[5mC]*d[5mC]*d[5mC]*dA*dG*dT*dT*d[5mC]*dG*kG*k[5mC]*k[5mC]; antisense) [compound 799339] | – | 18
31 | 799037 (k[5mC]*k[5mC]*k[5mC]*d[5mC]*dA*dG*d[5mC]*d[5mC]*dG*d[5mC]*d[5mC]*dA*dG*k[5mC]*kT*kT; antisense) [compound 799037] | 9 | –
32 | 798777 (kG*k[5mC]*kA*dA*d[5mC]*dA*d[5mC]*dA*dG*d[5mC]*d[5mC]*dT*d[5mC]*kT*kT*kG; antisense) [compound 798777] | – | 20
33 | 799057 (antisense kG*kG*k[5mC]*dT*d[5mC]*dG*d[5mC]*dT*dG*d[5mC]*dT*d[5mC]*dA*kG*kA*kA) [compound 799057] | 0 | –
34 | 799416 (antisense kA*kA*kG*dA*d[5mC]*d[5mC]*dT*dG*dG*dG*dT*d[5mC]*dA*kG*k[5mC]*kG) [compound 799416] | – | 41
35 | 799138 (antisense k[5mC]*k[5mC]*kA*dA*dA*dT*d[5mC]*d[5mC]*dT*dT*d[5mC]*dT*dT*kG*kG*kA) [compound 799138] | 7 | –
36 | 799481 (antisense k[5mC]*kT*k[5mC]*d[5mC]*dA*d[5mC]*dA*d[5mC]*dA*dG*dG*d[5mC]*dA*kA*k[5mC]*k[5mC]) [compound 799481] | – | 34

same assay, conditions: Hep3B cells, electroporation, 10,000 nM antisense oligonucleotide, approximately 24 hours, RTS5062, relative to untreated control cells

Row | Substance | % inhibition of SMAD7 mRNA expression [%]
37 | 799797 (kG*kA*k[5mC]*dA*dT*dT*dA*dG*dA*dT*dA*d[5mC]*dT*kG*kT*k[5mC]; antisense) [compound 799797] | 27
38 | 799813 (antisense kA*kT*kG*d[5mC]*dA*dG*dA*d[5mC]*dA*dG*d[5mC]*dT*dA*kA*kT*k[5mC]) [compound 799813] | 16
39 | 799820 (antisense k[5mC]*k[5mC]*k[5mC]*d[5mC]*dA*dG*d[5mC]*dA*dG*dG*dG*dT*dT*kT*kT*kG) [compound 799820] | 0
40 | 799816 (antisense kT*kG*kA*d[5mC]*dA*dA*dG*dG*dT*d[5mC]*d[5mC]*d[5mC]*d[5mC]*kA*kG*kG) [compound 799816] | 19
41 | 799538 (kT*kG*k[5mC]*dA*dG*dG*dA*dT*dG*dA*dG*dG*dA*kG*k[5mC]*kT; antisense) [compound 799538] | 29
42 | 799559 (kA*kG*k[5mC]*dT*dT*d[5mC]*dT*dA*dT*dT*d[5mC]*dG*dA*kG*k[5mC]*kT; antisense) [compound 799559] | 37
43 | 799737 (antisense k[5mC]*kT*kT*dA*dG*dA*dG*dT*dA*dT*dA*dA*dA*kT*kA*k[5mC]) [compound 799737] | 5

same assay, conditions: SMAD7 mRNA, Hep3B cells, 10,000 nM antisense oligonucleotide, electroporation, approximately 24 hours, primer probe set RTS5062, relative to untreated control cells

Row | Substance | % Inhibition [%]
44 | 800837 (antisense kA*kA*kA*d[5mC]*d[5mC]*dT*dT*dT*dG*dT*dA*dG*dT*kT*kA*kG) [compound 800837] | 41
45 | 772765 (kG*kA*kT*dT*dG*dG*d[5mC]*dA*dG*dG*dT*dT*dA*kA*kT*k[5mC]; antisense) [compound 772765] | 35

same assay, conditions: SMAD7 mRNA, Hep3B cells, electroporation with 10,000 nM antisense oligonucleotide, approximately 24 hours, primer probe set RTS5062, relative to untreated control cells

Row | Substance | % Inhibition [%]
46 | 830011 (antisense k[5mC]*k[5mC]*kA*dG*dT*d[5mC]*dT*d[5mC]*dA*dA*dA*dT*dG*kG*kG*k[5mC]) [compound 830011] | 25
47 | 829983 (kG*kG*k[5mC]*dG*dG*dT*dG*dA*dT*dT*dG*d[5mC]*d[5mC]*kT*kT*kG; antisense) [compound 829983] | 43
48 | 829877 (antisense kT*k[5mC]*k[5mC]*dG*dG*dG*dT*dT*dG*dT*d[5mC]*d[5mC]*dA*kG*kT*kG) [compound 829877] | 42
49 | 829996 (kT*kT*kT*dG*dT*d[5mC]*dT*dT*dA*dG*d[5mC]*dT*dG*kT*kG*kG; antisense) [compound 829996] | 54
